Broadly, the IC50 is the point on the concentration scale where inhibition reaches its midpoint.

Assay [1] concerns the target human recombinant LSD1 protein (Homo sapiens (Human), UniProt O60341). As to the kind of experiment: In vitro enzyme inhibition activity assay - LSD1 (Lance Ultra TR-FRET). The format is biochemical. To be noted: all compounds tested in the form of hydrochloride. How it is done:
The purpose of this experiment was to test the in vitro inhibitory activity of the compounds against LSD1. The human recombinant LSD1 protein used in the experiment was purchased from Active Motif, and the enzyme level activity testing assay of LSD1 was performed using the Lance Ultra LSD1 Histone H3 Lysine 4 Demethylase Assay Kit (PerkinElmer). Tris-buffer (50 mMTris-HCl, 50 mMNaCl, 0.01% Tween-20, 1 mM DTT, 10 μM FAD, 10% glycerol, pH 9.0) was first prepared, and after preparation, the LSD1 fractions required for test were placed in this buffer and incubated for one hour at room temperature; the fractions included 4 μL of substrate solution ([…] Bio-H3K4me2, 1-24aa), 4 μL of enzyme solution (4 nM LSD1), and 2 μL of inhibitor in a 384-well microplate. After these operations, another 5 μL of assay mixture containing Eu-labeled H3K4me0 antibody and ULight-Streptavidin anti-biotin protein was added to the system, after which the fluorescence intensity of the components to be tested was detected by using Envision (PerkinElmer) in TR-FRET mode (excitation wavelength of 320 nm, emission wavelength of 620 nm). The test was repeated a total of three times to minimize errors. The final IC50 data were calculated by the software GraphPad Prism 5, and finally the sigmoidal dose-response (variable slope) method was used to obtain the fitted curve.
The LSD1 inhibitory activities of representative compounds of the present application as well as the positive control compound CC90011 were provided in Table 2. All compounds were tested in the form of hydrochloride.

Assay [2] relates to MV4-11 cell line transplanted tumor. Put plainly: In vivo efficacy evaluation in mouse transplanted tumor model. To be noted: MV4-11 xenograft in NU/NU nude mice; 20 mg/kg by gavage every day for 21 days. Further details: species or system mouse (female NU/NU nude mice). How it is done:
Experimental purpose: To test the in vivo efficacy of compounds in mouse transplanted tumor model Experimental materials: female NU/NU nude mice, MV4-11 cell line Experimental methods: female NU/NU nude mice, weighing 20±2 g, were inoculated with MV4-11 cell line in the right axillary subcutaneous with a cell inoculation amount of 5×10^6/mouse. When the tumor formed, the diameter of the transplanted tumor was measured with vernier calipers, and the tumor was grew up to 100-300 mm^3; the animals were divided into model control group and administration group according to their weights and tumor volumes, with 6 animals per group. The administration group was administered with a suspension ground with 0.5% CMC-Na, while the model control group was given an equal amount of blank solvent. After grouping, the drug was administered orally every day at a dose of 20 mg/kg for 21 days. During the experiment, the diameter of the transplanted tumor was measured and the weight of the mice was weighed twice a week, and the tumor tissues were taken from the animal after euthanasia on the 21st day. […]

`N#Cc1ccc(-c2nc(N3CCC[C@@H](N)CC3)nc3ccc(-c4c(F)cccc4C(F)(F)F)cc23)cc1F` (stereo in doubt) [Compound 89, 4-(2-(4-aminoazepan-1-yl)-6-(2-fluoro-6-(trifluoromethyl)phenyl)quinazolin-4-yl)-2-fluorobenzonitrile]: the IC50 in assay [1] is not above 30 nM. Besides, the “relative tumor proliferation rate T/C” value in assay [2] was “less than 50%”.

Turning to `N#Cc1ccc(-c2nc(N3CCC(N)CC3)nc3ccc(-c4c(F)cccc4C(F)(F)F)cc23)cc1F` [Compound 19, 4-(2-(4-aminopiperidin-1-yl)-6-(2-fluoro-6-(trifluoromethyl)phenyl)quinazolin-4-yl)-2-fluorobenzonitrile], in assay [1], the IC50 was not above 30 nM. For the same compound, in assay [2], the “relative tumor proliferation rate T/C” value is listed as “less than 50%”.

Turning to `N#Cc1ccc(-c2nc(N3CCC[C@@H](N)C3)nc3ccc(-c4c(F)cccc4C(F)(F)F)cc23)cc1F` [Compound 74, (R)-4-(2-(3-aminopiperidin-1-yl)-6-(2-fluoro-6-(trifluoromethyl)phenyl)quinazolin-4-yl)-2-fluorobenzonitrile], the IC50 in assay [1] was not above 30 nM.

Take `N#Cc1ccc(-c2nc(N3CCC[C@H](N)C3)nc3ccc(-c4c(F)cccc4C(F)(F)F)cc23)cc1F` [Compound 75, (S)-4-(2-(3-aminopiperidin-1-yl)-6-(2-fluoro-6-(trifluoromethyl)phenyl)quinazolin-4-yl)-2-fluorobenzonitrile]: the IC50 in assay [1] fell in the range of 30 to 300 nM.

For `N#Cc1ccc(-c2nc(N3CCC4NCCC4C3)nc3ccc(-c4c(F)cccc4C(F)(F)F)cc23)cc1F` (centres unmarked) [Compound 76, 2-Fluoro-4-(6-(2-fluoro-6-(trifluoromethyl)phenyl)-2-(octahydro-5H-pyrrolo[3,2-c]pyridin-5-yl)quinazolin-4-yl)benzonitrile], in assay [1], the half-maximal inhibitory concentration (IC50) is not above 30 nM.

As to `N#Cc1ccc(-c2nc(N3CCC4(CCCN4)CC3)nc3ccc(-c4c(F)cccc4C(F)(F)F)cc23)cc1F` [Compound 77, 2-Fluoro-4-(6-(2-fluoro-6-(trifluoromethyl)phenyl)-2-(1,8-diazaspiro[4.5]dec-8-yl)quinazolin-4-yl)benzonitrile], the half-maximal inhibitory concentration (IC50) in assay [1] was not above 30 nM.

On to `N#Cc1ccc(-c2nc(N3CCC(N)CC3)nc3cc(F)c(-c4ccccc4F)cc23)cc1F` [Compound 78, 4-(2-(4-aminopiperidin-1-yl)-7-fluoro-6-(2-fluorophenyl)quinazolin-4-yl)-2-fluorobenzonitrile], for which the IC50 in assay [1] was not above 30 nM.

As to `N#Cc1ccc(-c2nc(N3CCC(N)CC3)nc3cc(F)c(-c4ccccc4C(F)(F)F)cc23)cc1F` [Compound 79, 4-(2-(4-Aminopiperidin-1-yl)-7-fluoro-6-(2-(trifluoromethyl)phenyl)quinazolin-4-yl)-2-fluorobenzonitrile], the half-inhibitory concentration (IC50) in assay [1] was 30 to 300 nM.

As for `N#Cc1ccc(-c2nc(N3CCC(N)CC3)nc3c(F)cc(-c4ccccc4C(F)(F)F)cc23)cc1F` [Compound 80, 4-(2-(4-aminopiperidin-1-yl)-8-fluoro-6-(2-trifluoromethylphenyl)quinazolin-4-yl)-2-fluorobenzonitrile], in assay [1], the IC50 is not above 30 nM.

In the case of `N#Cc1ccc(-c2nc(N3CCC(N)CC3)nc3c(F)cc(-c4ccccc4F)cc23)cc1F` [Compound 81], the half-inhibitory concentration (IC50) in assay [1] lay within 30 to 300 nM.

On to `N#Cc1ccc(-c2nc(N3CCC(N)CC3)nc3c(F)cc(-c4c(F)cccc4C(F)(F)F)cc23)cc1F` [Compound 82], for which the IC50 in assay [1] is not above 30 nM.

With `N#Cc1ccc(-c2nc(N3CC[C@@H](N)[C@@H](F)C3)nc3ccc(-c4c(F)cccc4C(F)(F)F)cc23)cc1F` [Compound 83, 4-(2-((3S,4R)-4-amino-3-fluoropiperidin-1-yl)-6-(2-fluoro-6-(trifluoromethyl)phenyl)quinazolin-4-yl)-2-fluorobenzonitrile], the IC50 in assay [1] was in the range of 30 to 300 nM.

With `N#Cc1ccc(-c2nc(N3CC[C@@H](N)[C@H](F)C3)nc3ccc(-c4c(F)cccc4C(F)(F)F)cc23)cc1F` [Compound 84, 4-(2-((3R,4R)-4-amino-3-fluoropiperidin-1-yl)-6-(2-fluoro-6-(trifluoromethyl)phenyl)quinazolin-4-yl)-2-fluorobenzonitrile], the IC50 in assay [1] was in the range of 30 to 300 nM.

For `N#Cc1ccc(-c2nc(N3CC[C@H](N)[C@@H](F)C3)nc3ccc(-c4c(F)cccc4C(F)(F)F)cc23)cc1F` [Compound 85, 4-(2-((3S,4S)-4-amino-3-fluoropiperidin-1-yl)-6-(2-fluoro-6-(trifluoromethyl)phenyl)quinazolin-4-yl)-2-fluorobenzonitrile], the IC50 in assay [1] lay within 30 to 300 nM.

Take `N#Cc1ccc(-c2nc(N3CCCC[C@H](N)C3)nc3ccc(-c4c(F)cccc4C(F)(F)F)cc23)cc1F` [Compound 86, (S)-4-(2-(3-aminoazepan-1-yl)-6-(2-fluoro-6-(trifluoromethyl)phenyl)quinazolin-4-yl)-2-fluorobenzonitrile]: the IC50 in assay [1] is not above 30 nM.

As to `N#Cc1ccc(-c2nc(N3CCCC[C@@H](N)C3)nc3ccc(-c4c(F)cccc4C(F)(F)F)cc23)cc1F` [Compound 87, (R)-4-(2-(3-aminoazepan-1-yl)-6-(2-fluoro-6-(trifluoromethyl)phenyl)quinazolin-4-yl)-2-fluorobenzonitrile], the IC50 in assay [1] is not above 30 nM.

Regarding `N#Cc1ccc(-c2nc(N3CCC[C@H](N)CC3)nc3ccc(-c4c(F)cccc4C(F)(F)F)cc23)cc1F` [Compound 88, (S)-4-(2-(4-aminoazepan-1-yl)-6-(2-fluoro-6-(trifluoromethyl)phenyl)quinazolin-4-yl)-2-fluorobenzonitrile], the IC50 in assay [1] is not above 30 nM.

For the compound `N#Cc1ccc(-c2nc(N3CC[C@H](N)C3)nc3ccc(-c4c(F)cccc4C(F)(F)F)cc23)cc1F` [Compound 90, (S)-4-(2-(3-aminopyrrolidin-1-yl)-6-(2-fluoro-6-(trifluoromethyl)phenyl)quinazolin-4-yl)-2-fluorobenzonitrile], the IC50 in assay [1] was not above 30 nM.

For `N#Cc1ccc(-c2nc(N3CC[C@@H](N)C3)nc3ccc(-c4c(F)cccc4C(F)(F)F)cc23)cc1F` [Compound 91, (R)-4-(2-(3-aminopyrrolidin-1-yl)-6-(2-fluoro-6-(trifluoromethyl)phenyl)quinazolin-4-yl)-2-fluorobenzonitrile], in assay [1], the IC50 was not above 30 nM.

In the case of `N#Cc1ccc(-c2nc(N3CCC(N)CC3)nc3c2CN(c2ccccc2C(F)(F)F)CC3)cc1F` [Compound 92, 4-(2-(4-aminopiperidin-1-yl)-6-(2-(trifluoromethyl)phenyl)-5,6,7,8-tetrahydropyrido[4,3-d]pyrimidin-4-yl)-2-fluorobenzonitrile], in assay [1], the IC50 lay within 30 to 300 nM.

`N#Cc1ccc(-c2nc(N3CCC(N)CC3)nc3c2CN(c2c(F)cccc2C(F)(F)F)CC3)cc1F` [Compound 93, 4-(2-(4-aminopiperidin-1-yl)-6-(2-fluoro-6-(trifluoromethyl)phenyl)-5,6,7,8-tetrahydropyrido[4,3-d]pyrimidin-4-yl)-2-fluorobenzonitrile]: the IC50 in assay [1] lay in the range of 30 to 300 nM.

`Cn1ncc2cccc(N3CCc4nc(N5CCC(N)CC5)nc(-c5ccc(C#N)c(F)c5)c4C3)c21` [Compound 94, 4-(2-(4-aminopiperidin-1-yl)-6-(1-methyl-1H-indazol-7-yl)-5,6,7,8-tetrahydropyrido[4,3-d]pyrimidin-4-yl)-2-fluorobenzonitrile]: the IC50 in assay [1] lay in the range of 30 to 300 nM.

For the compound `N#Cc1ccc(-c2nc(N3CCC(N)CC3)cc3ccc(-c4c(F)cccc4C(F)(F)F)cc23)cc1F` [Compound 98, 4-(3-(4-Aminopiperidin-1-yl)-7-(2-fluoro-6-(trifluoromethyl)phenyl)isoquinolin-1-yl)-2-fluorobenzonitrile], the IC50 in assay [1] was not above 30 nM.

For `Cn1c(=O)c(-c2ccccc2C(F)(F)F)cc2c(-c3ccc(C#N)c(F)c3)nc(N3CCC(N)CC3)nc21` [Compound 99, 4-(2-(4-aminopiperidin-1-yl)-8-methyl-7-oxo-6-(2-trifluoromethylphenyl)-7,8-dihydropyrido[2,3-d]pyrimidin-4-yl)-2-fluorobenzonitrile], the IC50 in assay [1] was not above 30 nM.

(Values after US20250042862A1, “AROMATIC HETEROCYCLIC COMPOUND AND APPLICATION THEREOF” (Shanghai Institute of Materia Medica, Chinese Academy of …, priority 2021, published 2025).)
